Reference: doi:10.1101/2021.12.02.470934v1 (biorxiv, 2021)

Target: FGFR1 kinase (FGFR1 kinase enzyme system, Promega V9321) (Homo sapiens, UniProt P11362)
Test: ADP-Glo luminescence kinase assay
Format: biochemical

Chain of FGFR1 kinase (FGFR1 kinase enzyme system, Promega V9321) (P11362 398-822 limits assumed): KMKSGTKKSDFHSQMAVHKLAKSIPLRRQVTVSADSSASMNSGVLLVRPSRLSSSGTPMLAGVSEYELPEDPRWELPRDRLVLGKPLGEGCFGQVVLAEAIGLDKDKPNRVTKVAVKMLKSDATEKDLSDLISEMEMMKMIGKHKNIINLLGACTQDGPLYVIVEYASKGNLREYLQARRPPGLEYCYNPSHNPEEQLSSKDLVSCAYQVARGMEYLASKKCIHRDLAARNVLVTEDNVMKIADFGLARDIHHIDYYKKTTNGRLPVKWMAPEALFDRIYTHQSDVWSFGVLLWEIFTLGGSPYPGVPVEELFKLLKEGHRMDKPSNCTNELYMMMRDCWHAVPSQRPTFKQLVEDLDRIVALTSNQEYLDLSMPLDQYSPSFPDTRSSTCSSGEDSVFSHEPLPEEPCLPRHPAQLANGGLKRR

How did the IC50 turn out when CCN(CC)CCCC(C)Nc1c2ccc(Cl)cc2nc2ccc(OC)cc12 (stereo not shown) [Quinacrine] was run?
Its IC50 is 1050 nM.
